Measurements as given in US20130237609A1, “CELLULOSE DERIVATIVES FOR ENHANCING BIOAVAILABILITY OF FLAVONOIDS” (priority 2011, published 2013).
Converted amounts (≈) assume the structure as drawn. Where two headings read alike, the source gives them in different places.

How the values were obtained:
[1] = cited from earlier work
[2] = physchem
[3] = pH 7.4 buffer; cited from earlier work
[4] = Curcumin release profile, pH 1.2 buffer; type: physicochemical; details: polymer label = amorphous blend of curcumin with that polymer
[5] = Curcumin release profile, pH 6.8 buffer; type: physicochemical; details: pH 6.8, UV-Vis
[6] = Contact angle of water on spin-coated films; type: physicochemical; details: Cur/polymer weight ratio, PVP samples: initial value
[7] = Curcumin stability in buffer (degradation plus crystallization), UV-Vis, no EtOH added; details: after 5 h, no EtOH dilution
[8] = Curcumin stability in buffer, UV-Vis after EtOH dilution; type: physicochemical
[9] = with piperine as metabolic inhibitor, in humans; cited from earlier work
[10] = Curcumin stability in pH 7.4 buffer, HPLC after EtOH dilution; type: physicochemical; details: 24 h, room temperature, EtOH dilution before measurement
Method: […]. Samples were incubated at room temperature for indicated times. After incubation, the reaction mixtures were diluted by 1 mL of ethanol and the UV-Vis absorption of the diluted solution was measured; then the diluted solution was filtered through a 1 μm PVDF membrane filter, and the filtrate was analyzed by HP LC. HPLC was performed with an Agilent 1200 series liquid chromatograph equipped with a 1200 quaternary pump, a variable wavelength UV/Vis detector and an Eclipse XDB-C18 column (150×4.6 mm, 5 μm particle size) using the mixture of 40% THF, 60% water and 1% acetic acid (pH 3.0) as mobile phase.
(Wang 1997). Such chemical degradation is likely the result of retro-aldol reactions. (Priyadarsini 2009). […] This experiment differs from the literature report in that the inventors use ethanol to dilute the incubated aqueous curcumin solution just prior to measurement, to make sure that any crystallized curcumin is re-dissolved for detection. […]

[11] = formulated as nanocrystals, solid dispersion in HPMCAS, nanoemulsion (Onoue 2010); cited from earlier work

Q: With O=c1c(O)c(-c2ccc(O)c(O)c2)oc2cc(O)cc(O)c12 [Quercetin] as the compound, how does the Solubility [1] read?
A: 0.4 µg/mL (≈ 1.32 µM)

Q: With COC1=CC(=O)C[C@@H](C)[C@]12Oc1c(Cl)c(OC)cc(OC)c1C2=O [griseofulvin] as the compound, how does the Solubility ([2]; solubility of crystalline griseofulvin) read?
A: 12 µg/mL (≈ 34 µM)

Q: And the Solubility ([2]; solubility of griseofulvin in the polymer matrix)?
A: ≤ 30000 µg/mL

Q: Which half-life of curcumin [3] does the source give for COc1cc(/C=C/C(=O)CC(=O)/C=C/c2ccc(O)c(OC)c2)ccc1O [Curcumin, 1,7-bis(4-hydroxy-3-methoxyphenyl)-1,6-heptadiene-3,5-dione] here?
A: 5.4 min

Q: And the “dissolution” value [4]?
A: virtually no dissolution

Q: What about the “Cur release concentration” value [5] of the same compound?
A: below the UV/Vis detection limit

Q: And the “contact angle of water on film” value [6]?
A: 102 °

Q: What about the “curcumin remained in solution” value ([7]; pH 6.8 buffer) of the same compound?
A: ~44%

Q: What about the “curcumin remained in solution” value ([7]; pH 7.4 buffer) of the same compound?
A: around 40%

Q: And the “Cur degraded (UV-Vis)” value ([8]; pH 6.8, after 5 h, EtOH dilution)?
A: 7%

Q: And the “Cur degraded (UV-Vis)” value ([8]; pH 7.4, after 5 h, EtOH dilution)?
A: 16%

Q: And the “Cur degraded (UV-Vis)” value ([8]; pH 7.4 buffer, 24 h, EtOH dilution before measurement)?
A: 33%

Q: What about the Solubility [1] of the same compound?
A: 3 µg/mL (≈ 8.14 µM)

Q: What about the “improvement of curcumin oral bioavailability” value [9] of the same compound?
A: up to 20 fold

Q: And the “curcumin degraded (HPLC, curcumin peak RT 6.0 min)” value [10]?
A: 36%

Q: What about the “improvement of oral bioavailability of curcumin” value [11] of the same compound?
A: 9-16 fold

Q: Which Solubility [1] does the source give for Oc1ccc(C=Cc2cc(O)cc(O)c2)cc1 [Resveratrol] here?
A: <0.1 µg/mL

Q: For O=c1oc2c(O)c(O)cc3c(=O)oc4c(O)c(O)cc1c4c23 [Ellagic Acid], which Solubility [1] is on record?
A: 10 µg/mL (≈ 33.1 µM)
